Calls of active or inactive are those of the source.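 The calls were made as follows: active = compounds giving half or more protection of infected cells from virus-caused growth loss, again on retest; inactive = the rest.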
Test system: CEM cells HIV-1 protection, formazan growth assay
Test: NCI AIDS Antiviral Assay
Conditions: for IC50: measured here: growth of uninfected CEM cells
In short: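 Protection of CEM cells against HIV-1 measured as cell growth via soluble formazan read-out, with five concentrations tested on both infected and uninfected cells; failure to protect may reflect toxicity.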

Structure (SMILES) | EC50 [µM] | IC50 [µM] | outcome
Cn1c2ccc3cc2c(=S)c2cc(ccc21)OCCOCCOCCOCCOCCOCCO3 | > 200 | 186 | 
N#CC1(O)Cc2ccccc2C1 | > 200 | > 200 | 
O=[N+]([O-])c1ccc2nc(-c3ccccn3)c(-c3ccccn3)nc2c1 | > 200 | > 200 | 
O=C(NC1CCCCC1)NC12CC3CC(CC(F)(C3)C1)C2 | > 45.7 | > 45.7 | 
CC(=O)NC1=NC(=O)/C(=C/c2ccccc2Cl)N1C | > 200 | > 200 | 
CCC(C)(C)/C(CC(O)(C(F)(F)F)C(F)(F)F)=N\O | > 200 | > 200 | 
C(=Nc1ccc(/C=C\c2ccnc3ccccc23)cc1)Nc1ccc(/C=C\c2ccnc3ccccc23)cc1 | > 7.59 | 5.62 | 
C/C=C/C(C#N)O[Si](C)(C)C (stereo not drawn) |  |  | inactive
N#Cc1ccccc1NC(=O)C(O)C(O)C(O)C(O)C=O (stereo not drawn) | > 200 | > 200 | 
N#Cc1c(N)nc([Se]CC(=O)c2ccc(Cl)cc2)c(C#N)c1-c1ccco1 | > 200 | 141 | 
CC(CCN1CCN(CCC(C)CC(C)(C)C)S1(=O)=O)CC(C)(C)C (stereo not drawn) |  |  | inactive
CC(C)(Oc1ccc2c(=O)cc(-c3ccc(Cl)cc3)oc2c1)C(=O)Nc1c(Cl)cccc1Cl | > 10.2 | > 10.2 | 
OCC(O)C(OC1OC(CO)C(O)C(O)C1O)c1nn(-c2ccc(F)cc2)c2nc3cc(Cl)c(Cl)cc3cc12 (stereo not drawn) |  |  | inactive
COC1=C(C)C(=O)C2=C(C1=O)C(CO)N1C(C#N)C3CC4C(C1C2N1CCOC41)N3C (stereo not drawn) | > 1.17 | 0.00575 | 
CC[C@H]1[C@@H](C)C=C[C@@H](C)N1S(=O)(=O)c1ccc(C)cc1 | > 17.8 | > 17.8 | 
NC(=O)Nc1ccc(C(=O)NCCCNC(=O)c2ccc(NC(N)=O)cc2)cc1 | > 200 | > 200 | 
Cc1ccc(-c2sc(-c3ccc(C)cc3)c3c2C2CCC3C2)cc1 | > 200 | > 200 | 
S=C1N(c2ccc(Br)cc2)C2=Nc3ccccc3SC(=C2N=Nc2ccccc2Cl)N1c1ccc(Cl)cc1 | > 34.7 | 6.76 | 
CCOC(=O)CNC(=O)C(CSSCC(NC(=O)OCc1ccccc1)C(=O)O)NC(=O)OCc1ccccc1 (stereo not drawn) | > 200 | > 200 | 
C=C(CC/C=C\CO)[Si](C)(C)C | > 141 | > 141 | 
CCOP1(=O)OCC(C(C)(C)C)CO1 (stereo not drawn) | > 200 | > 200 | 

Structure (SMILES) | EC50 [µM] | IC50 [µM] | outcome
N#CC(/C(CCC(=O)Nc1ccc(Cl)cc1)=N/NC(=O)c1cc2ccccc2cc1O)c1ccccc1 (stereo not drawn) | > 51.3 | 12.6 | 
O[C@@H]1CCN(Cc2ccccc2)C[C@@H]1CNC12CC3CC(CC(C3)C1)C2 | > 72.4 | > 72.4 | 
C=CCN1CC2CN=NC2(C#N)C1 (stereo not drawn) | > 200 | > 200 | 
CCCCN(C)CC(C(C)=O)C(c1ccccc1)c1c(O)c2ccccc2oc1=O (stereo not drawn) | > 67.6 | 60.3 | 
O=C(Cn1c2ccc(Br)cc2c2nc3ccccc3nc21)N1CCOCC1 | > 100 | > 100 | 
NC(=O)NC(=O)c1ccco1 | > 200 | > 200 | 
Nc1cc(N2CCCC2)nc(=O)n1Cc1ccccc1 |  |  | inactive
CC1(C)N/C(=C\C=O)C(C)(C)N1O | > 200 | > 200 | 
CC(=O)O/C=C1/C[C@H]2[C@@H]3CCC4CC(C(C)=O)CC[C@]4(C)[C@H]3CC[C@]2(C)C1=O (stereo partly drawn) | > 200 | 107 | 
NC(CCSCCF)C(=O)O (stereo not drawn) | > 692 | 102 | 
Cc1noc(/N=C2\C=C(Nc3onc(C)c3C)C(=O)c3ccccc32)c1C | > 2.75 | > 2.75 | 
O=C(O)/C(=C\c1ccc(F)cc1)c1ccccc1 | > 537 | 309 | 
CC1SC2=NC3=C(c4ccccc4C3=O)C(c3ccccc3Cl)N2C1=O (stereo not drawn) | > 35.5 | > 35.5 | 
COc1c(Br)cc(/C=C(\C#N)c2ccccn2)cc1Br | > 100 | > 100 | 
COCC(=O)OC1CCn2c1nc1c2C(=O)C(C)=C(NC(C)=O)C1=N (stereo not drawn) | > 200 | 2.88 | 
CCOC(=O)C(CS)NC(=O)CCCCCCCC(=O)NC(CS)C(=O)OCC (stereo not drawn) | > 200 | 102 | 
COc1ccc(C2NC(=O)N3C(c4ccc(OC)cc4)NC(=O)N23)cc1 (stereo not drawn) |  |  | inactive
O=C(NCCCN(CCCCN(CCCNC(=O)C(F)(F)F)Cc1ccc2ccccc2c1)Cc1ccc2ccccc2c1)C(F)(F)F |  |  | inactive
COC(=Nc1ccccc1)SSC(C)C | > 200 | 2.82 | 
c1ccc2c(c1)ncn1nnnc21 | > 955 | 501 | 
C(=C\c1c[nH]c2ccccc12)/c1nccc2ccccc12 | 0.0631 | 107 | 

From PubChem BioAssay AID179 (DTP/NCI, 2004)
